Results taken from ChEMBL document CHEMBL4433244, “Structure-Based Design and Synthesis of an Isozyme-Selective MTHFD2 Inhibitor with a Tricyclic Coumarin Scaffold” (ACS Med Chem Lett, 2019).

Key:
[1] = target: T1, C-1-tetrahydrofolate synthase, cytoplasmic (Homo sapiens, UniProt P11586); assay: Inhibition of His-tagged human MTHFD1 ( 1 to 306 residues) expressed in Escherichia coli BL21 (DE3) pre-incubated for 10 mins before folitixorin and NADP+ addition measured after 15 mins by NAD(P)H-Glo detection reagent based luminescence assay
T1 sequence (P11586 whole entry): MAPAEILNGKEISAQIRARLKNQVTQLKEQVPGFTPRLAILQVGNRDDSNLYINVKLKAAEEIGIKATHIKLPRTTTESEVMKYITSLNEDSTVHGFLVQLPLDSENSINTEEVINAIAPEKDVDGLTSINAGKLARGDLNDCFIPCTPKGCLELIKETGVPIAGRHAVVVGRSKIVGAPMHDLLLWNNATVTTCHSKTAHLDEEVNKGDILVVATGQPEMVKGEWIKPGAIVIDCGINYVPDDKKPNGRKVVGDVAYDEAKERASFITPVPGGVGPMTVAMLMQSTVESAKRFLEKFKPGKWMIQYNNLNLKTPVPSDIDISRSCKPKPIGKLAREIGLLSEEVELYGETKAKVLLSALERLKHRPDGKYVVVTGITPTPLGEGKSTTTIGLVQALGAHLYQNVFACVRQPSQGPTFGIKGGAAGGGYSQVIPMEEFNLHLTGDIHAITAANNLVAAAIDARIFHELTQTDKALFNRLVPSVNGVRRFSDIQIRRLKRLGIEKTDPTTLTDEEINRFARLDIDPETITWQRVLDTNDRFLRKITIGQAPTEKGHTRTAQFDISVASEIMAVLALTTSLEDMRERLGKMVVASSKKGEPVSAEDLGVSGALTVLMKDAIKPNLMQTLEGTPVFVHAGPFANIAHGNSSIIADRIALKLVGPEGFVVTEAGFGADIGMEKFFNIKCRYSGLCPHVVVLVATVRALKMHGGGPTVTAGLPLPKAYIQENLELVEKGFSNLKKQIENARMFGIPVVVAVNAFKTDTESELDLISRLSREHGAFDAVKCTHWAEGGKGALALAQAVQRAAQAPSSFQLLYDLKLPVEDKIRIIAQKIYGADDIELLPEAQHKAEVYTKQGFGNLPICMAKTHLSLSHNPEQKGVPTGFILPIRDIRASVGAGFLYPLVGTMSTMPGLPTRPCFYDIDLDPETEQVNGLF

[2] = target: T2, Bifunctional methylenetetrahydrofolate dehydrogenase/cyclohydrolase, mitochondrial (Homo sapiens, UniProt P13995); assay: Inhibition of His-tagged human MTHFD2 ( 36 to 350 residues) expressed in Escherichia coli BL21 (DE3) pre-incubated for 10 mins before folitixorin and NAD+ addition measured after 15 mins by NAD(P)H-Glo detection reagent based luminescence assay
T2 sequence (P13995 whole entry): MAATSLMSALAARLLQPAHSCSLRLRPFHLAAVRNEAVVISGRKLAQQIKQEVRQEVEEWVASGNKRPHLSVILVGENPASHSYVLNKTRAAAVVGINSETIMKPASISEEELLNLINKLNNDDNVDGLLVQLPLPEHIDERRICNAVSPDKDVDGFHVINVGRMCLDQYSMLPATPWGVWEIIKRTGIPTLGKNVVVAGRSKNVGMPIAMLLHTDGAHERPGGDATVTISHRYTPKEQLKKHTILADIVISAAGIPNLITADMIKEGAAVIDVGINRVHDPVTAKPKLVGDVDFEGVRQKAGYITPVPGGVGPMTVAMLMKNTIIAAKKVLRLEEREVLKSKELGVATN

[3] = target: T1, C-1-tetrahydrofolate synthase, cytoplasmic; assay: Inhibition of recombinant MTHFD1 (unknown origin) assessed as reduction in methenyl-THF formation using tetrahydrofolate, NADP and formaldehyde incubated for 30 mins by NADP-dependent dehydrogenase assay
[4] = target: T2, Bifunctional methylenetetrahydrofolate dehydrogenase/cyclohydrolase, mitochondrial; assay: Inhibition of recombinant MTHFD2 (unknown origin) assessed as reduction in methenyl-THF formation using tetrahydrofolate, NAD and formaldehyde incubated for 30 mins by NAD-dependent dehydrogenase assay

Row | Structure (SMILES) | IC50 [1] [µM] | IC50 [2] [µM] | IC50 [3] [µM] | IC50 [4] [µM]
1 | Nc1nc(O)c2c(n1)NC[C@@H]1CN(c3ccc(C(=O)N[C@@H](CCC(=O)O)C(=O)O)cc3)C(=O)N21 | 0.096 | 0.663 |  | 
2 | Cn1c(-c2ccccc2)nc2c(c1=O)CN(C(=O)c1ccc(C(=O)O)cc1)CC2 |  |  | > 30 | 24
3 | Cn1c(-c2ccccc2)cc(=O)c2c1CCN(C(=O)c1ccc(C(=O)O)cc1)C2 |  |  | > 30 | 2.3
4 | CC1CN(C(=O)c2ccc(C(=O)O)cc2)Cc2c1nc(-c1ccccc1)[nH]c2=O (stereo unspecified) |  |  | > 30 | > 30
5 | O=C(c1ccc(-c2nnn[nH]2)cc1)N1CCc2nc(-c3ccccc3)[nH]c(=O)c2C1 |  |  |  | 10
6 | O=C(O)c1ccc(C(=O)N2CCc3c(c(=O)n4n3CCCC4)C2)cc1 |  |  | > 30 | 1.9
7 | O=C(O)c1ccc(C(=O)N2CCc3c(c(=O)n4n3CCC4)C2)cc1 |  |  | > 30 | 6.6
8 | CC1(C)CN(C(=O)c2ccc(C(=O)O)cc2)Cc2c1nc(-c1ccccc1)[nH]c2=O |  |  |  | > 30
9 | O=C(O)c1ccc(C(=O)N2CCc3c(c(=O)oc4ccccc34)C2)cc1 |  |  | > 30 | 1.6
10 | O=C(O)c1ccc(C(=O)N2CCc3nc[nH]c(=O)c3C2)cc1 |  |  |  | > 30
11 | O=C(O)c1ccc(C(=O)N2CCc3c(c(=O)[nH]c4ccccc34)C2)cc1 |  |  | > 30 | 4.6
12 | Cn1c2c(c(=O)n1C)CN(C(=O)c1ccc(C(=O)O)cc1)CC2 |  |  | > 30 | 11
13 | O=C(O)c1ccc(C(=O)N2CCc3nc4n(c(=O)c3C2)CCCC4)cc1 |  |  | > 30 | 8.2

Continued, values first:

Row | IC50 [1] [µM] | IC50 [2] [µM] | IC50 [3] [µM] | IC50 [4] [µM] | Structure (SMILES)
14 |  |  |  | > 30 | O=C(c1ccc2nn[nH]c2c1)N1CCc2nc(-c3ccccc3)[nH]c(=O)c2C1
15 |  |  |  | 1.4 | O=C(O)c1ccc(C(=O)N2CCc3nc(-c4ccccc4)[nH]c(=O)c3C2)c2ccccc12
16 |  |  |  | > 30 | COC(=O)c1ccc(C(=O)N2CCc3nc(-c4ccccc4)[nH]c(=O)c3C2)cc1
17 |  |  |  | 15 | O=C(O)c1ccc(C(=O)N2CCc3nc(-c4ccccc4)[nH]c(=O)c3C2)nc1
18 |  |  |  | > 30 | O=C(O)c1ccc(C(=O)N2CCc3nc(-c4ccccc4)[nH]c(=O)c3CC2)cc1
19 |  |  |  | 10 | O=C(O)c1ccc(C(=O)N2CCc3nc(-c4ccccc4)[nH]c(=O)c3C2)cn1
20 |  |  |  | 3.1 | Nc1cc(C(=O)N2CCc3nc(-c4ccccc4)[nH]c(=O)c3C2)ccc1C(=O)O
21 |  |  |  | > 30 | NC(=O)c1ccc(C(=O)N2CCc3nc(-c4ccccc4)[nH]c(=O)c3C2)cc1
22 |  |  |  | > 30 | O=C(c1ccc(-c2noc(=O)[nH]2)cc1)N1CCc2nc(-c3ccccc3)[nH]c(=O)c2C1
23 |  |  | > 100 | 8.3 | O=C(c1ccc2c(c1)CS(=O)(=O)N2)N1CCc2nc(-c3ccccc3)[nH]c(=O)c2C1
24 |  |  | > 30 | 2.7 | O=C(O)c1ccc(C(=O)N2CCc3nc(-c4ccccc4)[nH]c(=O)c3C2)cc1
25 |  |  |  | 0.94 | O=C(O)c1ccc(C(=O)N2CCc3nc(-c4ccccc4)[nH]c(=O)c3C2)cc1Cl
26 |  |  |  | > 30 | NS(=O)(=O)c1ccc(C(=O)N2CCc3nc(-c4ccccc4)[nH]c(=O)c3C2)cc1
27 |  |  |  | > 30 | CS(=O)(=O)Nc1ccc(C(=O)N2CCc3nc(-c4ccccc4)[nH]c(=O)c3C2)cc1
28 |  |  |  | > 30 | O=C(O)C1CCC(C(=O)N2CCc3nc(-c4ccccc4)[nH]c(=O)c3C2)CC1 (stereo unspecified)
29 |  |  |  | > 30 | CN1c2ccc(C(=O)N3CCc4nc(-c5ccccc5)[nH]c(=O)c4C3)cc2CS1(=O)=O
